For one experiment, the target named is PLK-1 (Caenorhabditis elegans, UniProt P34331). Put plainly: in vitro radiometric kinase assay ([γ-32P]ATP, GST-LMN-1 head substrate). The class given is biochemical.
A further experiment has as its target LET-23 (Caenorhabditis elegans, UniProt P24348). Put plainly: continuous enzyme-coupled kinase assay on lipid vesicles, percent inhibition. It is filed as biochemical.

The structures appear in SMILES notation.

These results are taken from PMC8080662 (Scientific Reports, 2021).

Chain of PLK-1 (P34331 whole entry): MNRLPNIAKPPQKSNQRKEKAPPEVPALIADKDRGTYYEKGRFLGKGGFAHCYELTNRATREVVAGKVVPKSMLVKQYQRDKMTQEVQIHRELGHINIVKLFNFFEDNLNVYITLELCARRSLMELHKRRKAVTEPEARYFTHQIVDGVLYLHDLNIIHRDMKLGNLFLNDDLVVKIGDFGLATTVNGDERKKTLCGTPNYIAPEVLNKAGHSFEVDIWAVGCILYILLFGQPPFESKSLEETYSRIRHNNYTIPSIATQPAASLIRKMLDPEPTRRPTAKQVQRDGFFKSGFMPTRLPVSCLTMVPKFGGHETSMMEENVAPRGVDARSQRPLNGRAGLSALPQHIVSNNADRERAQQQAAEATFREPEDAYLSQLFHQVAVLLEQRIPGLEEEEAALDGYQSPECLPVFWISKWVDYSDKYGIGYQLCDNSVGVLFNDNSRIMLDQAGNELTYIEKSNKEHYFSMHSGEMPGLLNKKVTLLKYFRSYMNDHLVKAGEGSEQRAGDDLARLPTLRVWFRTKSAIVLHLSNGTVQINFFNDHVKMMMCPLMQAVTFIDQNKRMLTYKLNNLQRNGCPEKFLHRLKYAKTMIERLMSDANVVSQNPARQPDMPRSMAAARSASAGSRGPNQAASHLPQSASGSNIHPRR
Chain of LET-23 (P24348 866-1191): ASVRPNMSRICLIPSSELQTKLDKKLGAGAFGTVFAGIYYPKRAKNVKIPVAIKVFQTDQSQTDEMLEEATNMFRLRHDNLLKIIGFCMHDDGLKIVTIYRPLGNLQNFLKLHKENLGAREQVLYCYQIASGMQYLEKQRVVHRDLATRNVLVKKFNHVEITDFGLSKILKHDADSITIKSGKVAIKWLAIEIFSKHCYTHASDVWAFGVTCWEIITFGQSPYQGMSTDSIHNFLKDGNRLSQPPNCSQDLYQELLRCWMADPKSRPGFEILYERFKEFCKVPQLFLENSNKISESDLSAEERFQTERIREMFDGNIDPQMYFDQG

On to `C[C@@H](Oc1cc(-n2cnc3ccc(-c4ccncc4)cc32)sc1C(N)=O)c1ccccc1Cl` [GSK483724A], for which the 50% inhibitory concentration (IC50) against PLK-1 was 91 nM.

`[O-][S+]1CCN(Cc2ccc(-c3ccc4ncnc(Nc5ccc(OCc6ccccc6)c(Cl)c5)c4c3)o2)CC1` [GW583373A]: the “continuous enzyme-coupled kinase assay on lipid vesicles, percent inhibition” value at LET-23 is “The ATOP and 4AQ scaffold compounds tested were able to inhibit LET-23 kinase activity”. On the same count and under the same terms, as for `CS(=O)(=O)CCNCc1ccc(-c2ccc3ncnc(Nc4ccc(OCc5cccc(F)c5)c(C(F)(F)F)c4)c3c2)o1` [GW576484X], the entry is “The ATOP and 4AQ scaffold compounds tested were able to inhibit LET-23 kinase activity”. `C[C@@H](Oc1cc(-n2cnc3cc(-c4ccncc4)ccc32)sc1C(N)=O)c1ccccc1Cl` [GSK479719A] gave an IC50 against PLK-1 of 39 nM.

A word on the IC50: it is the midpoint of a concentration-inhibition curve. A low value points to greater potency.
